Test results taken from ChEMBL document CHEMBL1629672, “blaCTX-M genes in escherichia coli strains from Croatian Hospitals are located in new (blaCTX-M-3a) and widely spread (blaCTX-M-3a and blaCTX-M-15) genetic structures” (2009).
≈ marks a conversion by molar mass, not a printed value.

Columns and labels:
Escherichia coli [1] = experiment: Antimicrobial activity against Escherichia coli isolate 16 harboring bla CTX-M-3a gene by broth microdilution method; type: functional
Escherichia coli [2] = experiment: Antimicrobial activity against Escherichia coli isolate 49 harboring bla CTX-M-3a gene by broth microdilution method; type: functional
Escherichia coli [3] = experiment: Antimicrobial activity against Escherichia coli isolate Z1 harboring bla CTX-M-3a gene by broth microdilution method; type: functional
Escherichia coli [4] = experiment: Antimicrobial activity against Escherichia coli isolate 86 harboring bla CTX-M-3a gene by broth microdilution method; type: functional
Escherichia coli [5] = experiment: Antimicrobial activity against Escherichia coli isolate 100 harboring bla CTX-M-3a gene by broth microdilution method; type: functional
Escherichia coli [6] = experiment: Antimicrobial activity against Escherichia coli isolate 36 harboring bla CTX-M-3a gene by broth microdilution method; type: functional
Escherichia coli [7] = experiment: microbe, parasite or virus in culture; conditions: ATCC 25922
Escherichia coli [8] = experiment: Antimicrobial activity against Escherichia coli isolate 32 harboring bla CTX-M-3a gene by broth microdilution method; type: functional
Escherichia coli [9] = experiment: Antimicrobial activity against Escherichia coli isolate 32 harboring bla CTX-M-3a gene by broth microdilution method in presence of clavulanic acid
Escherichia coli [10] = experiment: Antimicrobial activity against Escherichia coli ATCC 25922 harboring bla CTX-M-3a gene by broth microdilution method in presence of clavulanic acid; type: functional
Escherichia coli [11] = experiment: Antimicrobial activity against Escherichia coli isolate 86 harboring bla CTX-M-3a gene by broth microdilution method in presence of clavulanic acid
Escherichia coli [12] = experiment: Antimicrobial activity against Escherichia coli isolate 36 harboring bla CTX-M-3a gene by broth microdilution method in presence of clavulanic acid
Escherichia coli [13] = experiment: Antimicrobial activity against Escherichia coli isolate 49 harboring bla CTX-M-3a gene by broth microdilution method in presence of clavulanic acid
Escherichia coli [14] = experiment: Antimicrobial activity against Escherichia coli isolate Z1 harboring bla CTX-M-3a gene by broth microdilution method in presence of clavulanic acid
Escherichia coli [15] = experiment: Antimicrobial activity against Escherichia coli isolate 16 harboring bla CTX-M-3a gene by broth microdilution method in presence of clavulanic acid
Escherichia coli [16] = experiment: Antimicrobial activity against Escherichia coli isolate 100 harboring bla CTX-M-3a gene by broth microdilution method in presence of clavulanic acid
Escherichia coli [17] = experiment: Antimicrobial activity against Escherichia coli isolate 32 harboring bla CTX-M-3a gene by broth microdilution method in presence of Tazobactam; type: functional
Escherichia coli [18] = experiment: Antimicrobial activity against Escherichia coli isolate 100 harboring bla CTX-M-3a gene by broth microdilution method in presence of Tazobactam; type: functional
Escherichia coli [19] = experiment: Antimicrobial activity against Escherichia coli isolate 36 harboring bla CTX-M-3a gene by broth microdilution method in presence of Tazobactam; type: functional
Escherichia coli [20] = experiment: Antimicrobial activity against Escherichia coli isolate 16 harboring bla CTX-M-3a gene by broth microdilution method in presence of Tazobactam; type: functional
Escherichia coli [21] = experiment: Antimicrobial activity against Escherichia coli ATCC 25922 harboring bla CTX-M-3a gene by broth microdilution method in presence of Tazobactam; type: functional
Escherichia coli [22] = experiment: Antimicrobial activity against Escherichia coli isolate 86 harboring bla CTX-M-3a gene by broth microdilution method in presence of Tazobactam; type: functional
Escherichia coli [23] = experiment: Antimicrobial activity against Escherichia coli isolate 49 harboring bla CTX-M-3a gene by broth microdilution method in presence of Tazobactam; type: functional

Compound | MIC (Escherichia coli [1]) | MIC (Escherichia coli [2]) | MIC (Escherichia coli [3]) | MIC (Escherichia coli [4]) | MIC (Escherichia coli [5]) | MIC (Escherichia coli [6]) | MIC (Escherichia coli [7]) | MIC (Escherichia coli [8]) | further results
CO/N=C(\C(=O)N[C@@H]1C(=O)N2C(C(=O)[O-])=C(C[N+]3(C)CCCC3)CS[C@H]12)c1csc(N)n1 | 128 µg/mL (≈ 266 µM) | 8 µg/mL (≈ 16.6 µM) | 64 µg/mL (≈ 133 µM) | 512 µg/mL (≈ 1070 µM) | 32 µg/mL (≈ 66.6 µM) | 256 µg/mL (≈ 533 µM) |  |  | 
NCC[C@H](O)C(=O)N[C@@H]1C[C@H](N)[C@@H](O[C@H]2O[C@H](CN)[C@@H](O)[C@H](O)[C@H]2O)[C@H](O)[C@H]1O[C@H]1O[C@H](CO)[C@@H](O)[C@H](N)[C@H]1O [AMIKACIN] | 64 µg/mL (≈ 109 µM) | ≤ 0.03 µg/mL | > 128 µg/mL | 4 µg/mL (≈ 6.83 µM) | > 128 µg/mL | 2 µg/mL (≈ 3.42 µM) | 1 µg/mL (≈ 1.71 µM) | 16 µg/mL (≈ 27.3 µM) | 
CC1(C)S[C@@H]2[C@H](NC(=O)[C@H](N)c3ccc(O)cc3)C(=O)N2[C@H]1C(=O)O [AMOXICILLIN] | 4 µg/mL (≈ 10.9 µM) | 1 µg/mL (≈ 2.74 µM) | 32 µg/mL (≈ 87.6 µM) | 8 µg/mL (≈ 21.9 µM) | 8 µg/mL (≈ 21.9 µM) | 8 µg/mL (≈ 21.9 µM) | 4 µg/mL (≈ 10.9 µM) | 8 µg/mL (≈ 21.9 µM) | 
CC1(C)S[C@@H]2[C@H](NC(=O)[C@H](N)c3ccccc3)C(=O)N2[C@H]1C(=O)O [AMPICILLIN] | > 1020 µg/mL | > 1020 µg/mL | > 1020 µg/mL | > 1020 µg/mL | > 1020 µg/mL | > 1020 µg/mL | 4 µg/mL (≈ 11.4 µM) | > 1020 µg/mL | 
CO/N=C(\C(=O)N[C@@H]1C(=O)N2C(C(=O)O)=C(COC(C)=O)CS[C@H]12)c1csc(N)n1 [CEFOTAXIME] | 64 µg/mL (≈ 141 µM) | 128 µg/mL (≈ 281 µM) | > 1020 µg/mL | > 1020 µg/mL | 128 µg/mL (≈ 281 µM) | 512 µg/mL (≈ 1120 µM) | 0.06 µg/mL (≈ 0.132 µM) | > 1020 µg/mL | MIC (Escherichia coli [9]): 0.06 µg/mL; MIC (Escherichia coli [10]): ≤ 0.03 µg/mL; MIC (Escherichia coli [11]): 0.125 µg/mL; MIC (Escherichia coli [12]): 0.06 µg/mL; MIC (Escherichia coli [13]): 0.06 µg/mL; MIC (Escherichia coli [14]): 0.5 µg/mL; MIC (Escherichia coli [15]): 0.125 µg/mL; MIC (Escherichia coli [16]): 0.06 µg/mL
CO[C@@]1(NC(=O)Cc2cccs2)C(=O)N2C(C(=O)O)=C(COC(N)=O)CS[C@@H]21 [CEFOXITIN] | 4 µg/mL (≈ 9.36 µM) | 2 µg/mL (≈ 4.68 µM) | 16 µg/mL (≈ 37.4 µM) | 16 µg/mL (≈ 37.4 µM) | 8 µg/mL (≈ 18.7 µM) | 8 µg/mL (≈ 18.7 µM) | 4 µg/mL (≈ 9.36 µM) | 16 µg/mL (≈ 37.4 µM) | 
CC(C)(O/N=C(\C(=O)N[C@@H]1C(=O)N2C(C(=O)[O-])=C(C[n+]3ccccc3)CS[C@H]12)c1csc(N)n1)C(=O)O [CEFTAZIDIME] | 1 µg/mL (≈ 1.83 µM) | 0.25 µg/mL (≈ 0.457 µM) | 16 µg/mL (≈ 29.3 µM) | 8 µg/mL (≈ 14.6 µM) | 4 µg/mL (≈ 7.32 µM) | 4 µg/mL (≈ 7.32 µM) | 0.25 µg/mL (≈ 0.457 µM) | 4 µg/mL (≈ 7.32 µM) | MIC (Escherichia coli [9]): 0.5 µg/mL; MIC (Escherichia coli [10]): 0.125 µg/mL; MIC (Escherichia coli [11]): 0.5 µg/mL; MIC (Escherichia coli [12]): 0.25 µg/mL; MIC (Escherichia coli [13]): 0.06 µg/mL; MIC (Escherichia coli [14]): 1 µg/mL; MIC (Escherichia coli [15]): 0.125 µg/mL; MIC (Escherichia coli [16]): 0.5 µg/mL
CO/N=C(\C(=O)N[C@@H]1C(=O)N2C(C(=O)O)=C(CSc3nc(=O)c(O)nn3C)CS[C@H]12)c1csc(N)n1 [CEFTRIAXONE] | > 1020 µg/mL | 128 µg/mL (≈ 231 µM) | > 1020 µg/mL | > 1020 µg/mL | > 1020 µg/mL | > 1020 µg/mL | 0.06 µg/mL (≈ 0.108 µM) | > 1020 µg/mL | 
O=C(O)c1cn(C2CC2)c2cc(N3CCNCC3)c(F)cc2c1=O [CIPROFLOXACIN] |  | ≤ 0.03 µg/mL | > 128 µg/mL |  |  |  | ≤ 0.03 µg/mL |  | 
C[C@@H](O)[C@H]1C(=O)N2C(C(=O)O)=C(SCCNC=N)C[C@H]12 [IMIPENEM ANHYDROUS] |  | 0.06 µg/mL (≈ 0.2 µM) | 1 µg/mL (≈ 3.34 µM) |  | 0.5 µg/mL (≈ 1.67 µM) | 0.25 µg/mL (≈ 0.835 µM) |  | 0.25 µg/mL (≈ 0.835 µM) | 
C[C@@H](O)[C@H]1C(=O)N2C(C(=O)O)=C(S[C@@H]3CN[C@H](C(=O)N(C)C)C3)[C@H](C)[C@H]12 [MEROPENEM] | 0.06 µg/mL (≈ 0.156 µM) | 0.06 µg/mL (≈ 0.156 µM) | 0.125 µg/mL (≈ 0.326 µM) | 0.06 µg/mL (≈ 0.156 µM) | 0.25 µg/mL (≈ 0.652 µM) | 0.125 µg/mL (≈ 0.326 µM) | ≤ 0.03 µg/mL | 0.06 µg/mL (≈ 0.156 µM) | 
CCN1CCN(C(=O)N[C@@H](C(=O)N[C@@H]2C(=O)N3[C@@H]2SC(C)(C)[C@@H]3C(=O)O)c2ccccc2)C(=O)C1=O [PIPERACILLIN] | 256 µg/mL (≈ 495 µM) | 64 µg/mL (≈ 124 µM) | > 1020 µg/mL | > 1020 µg/mL | > 1020 µg/mL | > 1020 µg/mL | 2 µg/mL (≈ 3.86 µM) | > 1020 µg/mL | MIC (Escherichia coli [17]): 16 µg/mL; MIC (Escherichia coli [18]): 4 µg/mL; MIC (Escherichia coli [19]): 4 µg/mL; MIC (Escherichia coli [20]): 2 µg/mL; MIC (Escherichia coli [21]): 2 µg/mL; MIC (Escherichia coli [22]): > 128 µg/mL; MIC (Escherichia coli [23]): 8 µg/mL
GENTAMICIN | 32 µg/mL | 0.125 µg/mL | > 128 µg/mL | > 128 µg/mL | > 128 µg/mL | 1 µg/mL |  | > 128 µg/mL | 
